Laboratory results: US20260258035A1, “FIVE-MEMBERED AND SIX-MEMBERED NITROGEN-CONTAINING COMPOUND, AND INTERMEDIATE, PREPARATION METHOD AND USE THEREOF” (HANGZHOU SYNRX THERAPEUTICS BIOMEDICAL TECHNOLOGY CO., LTD., priority 2022, published 2026)
Like-named read-outs stand apart in the source and are kept apart here.

Tests used:
PARG = PARG (Homo sapiens, UniProt Q86W56); experiment: Biochemical assay (PARG, TFMU-ADPr substrate)
HCC1806 = experiment: Cell viability assay (CellTiter-Glo); format: cell-based, Human; conditions: read-out: IC50 (nM) in cell viability assay
[1] = Homo sapiens, HCC1806, 168 h, HCC1806, 7 days, CellTiter-Glo
[2] = 4 nM PARG, 66.2 uM TFMU-ADPr, 3 min at room temperature

PARG, sequence (Q86W56 whole entry): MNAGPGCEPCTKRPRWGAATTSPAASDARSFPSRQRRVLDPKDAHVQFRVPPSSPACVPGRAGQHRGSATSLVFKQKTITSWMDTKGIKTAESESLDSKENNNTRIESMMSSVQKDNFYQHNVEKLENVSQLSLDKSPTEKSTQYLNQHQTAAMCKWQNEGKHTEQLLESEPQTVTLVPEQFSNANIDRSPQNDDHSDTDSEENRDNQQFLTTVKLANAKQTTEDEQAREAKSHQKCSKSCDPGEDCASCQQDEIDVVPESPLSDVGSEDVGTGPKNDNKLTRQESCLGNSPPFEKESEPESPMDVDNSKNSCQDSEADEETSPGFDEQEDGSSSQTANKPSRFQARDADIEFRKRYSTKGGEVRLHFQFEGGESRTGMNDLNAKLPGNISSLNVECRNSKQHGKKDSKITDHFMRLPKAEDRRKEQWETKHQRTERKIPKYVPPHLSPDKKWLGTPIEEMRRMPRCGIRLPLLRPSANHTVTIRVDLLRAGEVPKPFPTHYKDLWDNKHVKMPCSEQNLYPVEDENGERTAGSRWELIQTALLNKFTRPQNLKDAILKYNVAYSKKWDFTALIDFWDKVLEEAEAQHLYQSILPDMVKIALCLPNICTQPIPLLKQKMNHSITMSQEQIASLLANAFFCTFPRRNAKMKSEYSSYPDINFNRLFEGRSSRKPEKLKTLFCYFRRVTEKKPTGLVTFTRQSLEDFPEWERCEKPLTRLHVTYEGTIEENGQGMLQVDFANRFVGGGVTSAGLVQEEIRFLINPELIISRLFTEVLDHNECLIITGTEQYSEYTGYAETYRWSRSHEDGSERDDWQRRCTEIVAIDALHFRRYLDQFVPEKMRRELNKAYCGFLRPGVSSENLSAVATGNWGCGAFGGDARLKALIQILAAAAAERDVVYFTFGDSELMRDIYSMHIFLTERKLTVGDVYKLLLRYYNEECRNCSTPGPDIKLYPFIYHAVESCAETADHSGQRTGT

Row | Compound | IC50 (PARG; PARG, TFMU-ADPr substrate) | IC50 (HCC1806; [1]) | IC50 (PARG; [2]) | IC50 (HCC1806; HCC1806, 7 days, CellTiter-Glo) | IC50 (HCC1806; Homo sapiens, HCC1806, 168 h)
1 | CC(C)C(=O)N1CCN(c2cc(S(=O)(=O)NC3CC3)cn3c(-c4nnc(C(F)(F)F)s4)nnc23)CC1 [Example 387, N-cyclopropyl-8-(4-isobutyrylpiperazin-1-yl)-3-(5-(trifluoromethyl)-1,3,4-thiadiazol-2-yl)-[1,2,4]triazolo[4,3-a]pyridine-6-sulfonamide] | 38 nM | 800 nM |  |  | 
2 | COC1(C(=O)N2CCN(c3cc(S(=O)(=O)NC4(C)CC4)cn4c(-c5nnc(C(F)F)s5)ncc34)C[C@H]2CF)CC1 [Example 200, (S)-3-(5-(difluoromethyl)-1,3,4-thiadiazol-2-yl)-8-(3-(fluoromethyl)-4-(1-methoxycyclopropane-1-carbonyl)piperazin-1-yl)-N-(1-methylcyclopropyl)imidazo[1,5-a]pyridine-6-sulfonamide] | 0.63 nM | 54.6 nM |  |  | 
3 | CC1(NS(=O)(=O)c2cc(N3CCC(O)(C(F)(F)F)CC3)c3cnc(-c4nnc(C(F)F)s4)n3c2)COC1 [Example 72, 3-(5-(difluoromethyl)-1,3,4-thiadiazol-2-yl)-8-(4-hydroxy-4-(trifluoromethyl)piperidin-1-yl)-N-(3-methyloxetan-3-yl)imidazo[1,5-a]pyridine-6-sulfonamide] | 17.8 nM | 500 to 5000 nM | < 100 nM | 805 nM | 
4 | CN(C)CC1(O)CCN(c2cc(S(=O)(=O)NC3(C)CC3)cn3c(-c4nnc(C(F)F)s4)ncc23)CC1 [Example 337, 3-(5-(difluoromethyl)-1,3,4-thiadiazol-2-yl)-8-(4-((dimethylamino)methyl)-4-hydroxypiperidin-1-yl)-N-(1-methylcyclopropyl)imidazo[1,5-a]pyridine-6-sulfonamide] | 4.82 nM | 245 nM |  |  | 
5 | N#CC1(NS(=O)(=O)c2cc(N3CCN(C(=O)CO)CC3)c3cnc(-c4nnc(C(F)(F)F)s4)n3c2)CC1 [Example 276, N-(1-cyanocyclopropyl)-8-(4-(2-hydroxyacetyl)piperazin-1-yl)-3-(5-(trifluoromethyl)-1,3,4-thiadiazol-2-yl)imidazo[1,5-a]pyridine-6-sulfonamide] | 45.7 nM | 1750 nM |  |  | 
6 | N#CC1(NS(=O)(=O)c2cc(N3CCC4=C(COC4=O)C3)c3cnc(-c4nnc(C(F)(F)F)s4)n3c2)CC1 [Example 220, N-(1-cyanocyclopropyl)-8-(1-oxo-1,4,6,7-tetrahydrofuro[3,4-c]pyridin-5(3H)-yl)-3-(5-(trifluoromethyl)-1,3,4-thiadiazol-2-yl)imidazo[1,5-a]pyridine-6-sulfonamide] | 57.5 nM | 664 nM |  |  | 
7 | Cn1nccc1C1C=C(c2cc(S(=O)(=O)NC3(C#N)CC3)cn3c(-c4nnc(C(F)F)s4)nnc23)CC1 (stereo not shown) [Example 367, N-(1-cyanocyclopropyl)-3-(5-(difluoromethyl)-1,3,4-thiadiazol-2-yl)-8-(3-(1-methyl-1H-pyrazol-5-yl)cyclopent-1-en-1-yl)-[1,2,4]triazolo[4,3-a]pyridine-6-sulfonamide] | 32.8 nM | 5000 to 30000 nM | < 100 nM | 6780 nM | 
8 | CNC1(C(=O)N2CCN(c3cc(S(=O)(=O)NC4(C)CC4)cn4c(-c5nnc(C(F)(F)F)s5)ncc34)CC2)CC1 [Example 318, 8-(4-(1-(methylamino)cyclopropane-1-carbonyl)piperazin-1-yl)-N-(1-methylcyclopropyl)-3-(5-(trifluoromethyl)-1,3,4-thiadiazol-2-yl)imidazo[1,5-a]pyridine-6-sulfonamide] | 1.84 nM | 363 nM |  |  | 
9 | CC1(NS(=O)(=O)c2cc(N3CCN(C(=O)C4(CO)CC4)CC3)c3cnc(-c4nnc(C(F)(F)F)s4)n3c2)CC1 [Example 345, 8-(4-(1-(hydroxymethyl)cyclopropane-1-carbonyl)piperazin-1-yl)-N-(1-methylcyclopropyl)-3-(5-(trifluoromethyl)-1,3,4-thiadiazol-2-yl)imidazo[1,5-a]pyridine-6-sulfonamide] | 5.01 nM | 374 nM |  |  | 
10 | CC1(NS(=O)(=O)c2cc(N3CCN(C(=O)[C@H]4CCN4CCF)CC3)c3cnc(-c4nnc(C(F)(F)F)s4)n3c2)CC1 [Example 320, (R)-8-(4-(1-(2-fluoroethyl)azetidine-2-carbonyl)piperazin-1-yl)-N-(1-methylcyclopropyl)-3-(5-(trifluoromethyl)-1,3,4-thiadiazol-2-yl)imidazo[1,5-a]pyridine-6-sulfonamide] | 2.71 nM | 93.9 nM |  |  | 
11 | CC(C)C(=O)N1CCN(c2cc(S(=O)(=O)NC3(C#N)CC3)cn3c(-c4nnc(C(F)(F)F)s4)ncc23)C[C@H]1C [Example 205, (R)-N-(1-cyanocyclopropyl)-8-(4-isobutyryl-3-methylpiperazin-1-yl)-3-(5-(trifluoromethyl)-1,3,4-thiadiazol-2-yl)imidazo[1,5-a]pyridine-6-sulfonamide] | 22.9 nM | 699 nM |  |  | 
12 | CC1(NS(=O)(=O)c2cc(N3CCN[C@@H](CO)C3)c3cnc(-c4nnc(C(F)F)s4)n3c2)COC1 [Example 178, (R)-3-(5-(difluoromethyl)-1,3,4-thiadiazol-2-yl)-8-(3-(hydroxymethyl)piperazin-1-yl)-N-(3-methyloxetan-3-yl)imidazo[1,5-a]pyridine-6-sulfonamide] | 1.18 nM | 945 nM |  |  | 
13 | CN1CC2CN(c3cc(S(=O)(=O)NC4(C)COC4)cn4c(-c5nnc(C(F)(F)F)s5)ncc34)CCN2C(=O)C12CC2 (stereo not shown) [Example 393, 8-(2′-methyl-4′-oxohexahydro-4′H,8′H-spiro[cyclopropane-1,3′-pyrazino[1,2-a]pyrazin]-8′-yl)-N-(3-methyloxetan-3-yl)-3-(5-(trifluoromethyl)-1,3,4-thiadiazol-2-yl)imidazo[1,5-a]pyridine-6-sulfonamide] | 5.75 nM | 222 nM |  |  | 
14 | Cn1nccc1C1CCC(c2cc(S(=O)(=O)NC3(C#N)CC3)cn3c(-c4nnc(C(F)F)s4)nnc23)C1 (stereo not shown) [Example 378, N-(1-cyanocyclopropyl)-3-(5-(difluoromethyl)-1,3,4-thiadiazol-2-yl)-8-(3-(1-methyl-1H-pyrazol-5-yl)cyclopentyl)-[1,2,4]triazolo[4,3-a]pyridine-6-sulfonamide] | 27.7 nM | 5000 to 30000 nM | < 100 nM | 6000 nM | 
15 | CC(=O)N1CCN(c2cc(S(=O)(=O)NC3(C#N)CC3)cn3c(-c4nnc(C(F)(F)F)s4)ncc23)CC1 [Example 173, 8-(4-acetylpiperazin-1-yl)-N-(1-cyanocyclopropyl)-3-(5-(trifluoromethyl)-1,3,4-thiadiazol-2-yl)imidazo[1,5-a]pyridine-6-sulfonamide] | 50.1 nM | 400 nM |  |  | 
16 | N#CC1(NS(=O)(=O)c2cc(N3CC[C@@H](O)C3)c3cnc(-c4nnc(C(F)(F)F)s4)n3c2)CC1 [Example 230, (R)-N-(1-cyanocyclopropyl)-8-(3-hydroxypyrrolidin-1-yl)-3-(5-(trifluoromethyl)-1,3,4-thiadiazol-2-yl)imidazo[1,5-a]pyridine-6-sulfonamide] | 120 nM | 8000 nM |  |  | 
17 | CN(C)CCCOC1(C(=O)N2CCN(c3cc(S(=O)(=O)NC4(C)CC4)cn4c(-c5nnc(C(F)(F)F)s5)ncc34)CC2)CC1 [Example 385, 8-(4-(1-(3-(dimethylamino)propoxy)cyclopropane-1-carbonyl)piperazin-1-yl)-N-(1-methylcyclopropyl)-3-(5-(trifluoromethyl)-1,3,4-thiadiazol-2-yl)imidazo[1,5-a]pyridine-6-sulfonamide] | 0.48 nM |  |  |  | 40 nM
18 | CC(C)OCC1CN(c2cc(S(=O)(=O)NC3(C)COC3)cn3c(-c4nnc(C(F)F)s4)ncc23)CCN1 (stereo not shown) [Example 361, 3-(5-(difluoromethyl)-1,3,4-thiadiazol-2-yl)-8-(3-(isopropoxymethyl)piperazin-1-yl)-N-(3-methyloxetan-3-yl)imidazo[1,5-a]pyridine-6-sulfonamide] | 18.2 nM | 642 nM |  |  | 
19 | CC1(NS(=O)(=O)c2cc(N3CCN(C(=O)c4ccncc4)CC3)c3cnc(-c4nnc(C(F)F)s4)n3c2)CC1 [Example 338, 3-(5-(difluoromethyl)-1,3,4-thiadiazol-2-yl)-8-(4-isonicotinoylpiperazin-1-yl)-N-(1-methylcyclopropyl)imidazo[1,5-a]pyridine-6-sulfonamide] | 0.48 nM | 50 nM |  |  | 
20 | O=C(C1CCN(c2cc(S(=O)(=O)NC3CC3)cn3c(-c4nnc(C(F)(F)F)s4)ncc23)CC1)N1CCC1 [Example 219, 8-(4-(azetidine-1-carbonyl)piperidin-1-yl)-N-cyclopropyl-3-(5-(trifluoromethyl)-1,3,4-thiadiazol-2-yl)imidazo[1,5-a]pyridine-6-sulfonamide] | 100 nM | 4610 nM |  |  | 
21 | CC(C)C(=O)N1CCN(c2cc(S(=O)(=O)NC34CC(F)(C3)C4)cn3c(-c4nnc(C(F)F)s4)ncc23)CC1 [Example 59, 3-(5-(difluoromethyl)-1,3,4-thiadiazol-2-yl)-N-(3-fluorobicyclo[1.1.1]pentan-1-yl)-8-(4-isobutyrylpiperazin-1-yl)imidazo[1,5-a]pyridine-6-sulfonamide] |  | > 30000 nM | > 1000 nM |  | 
22 | C[C@H]1CN(c2cc(S(=O)(=O)NC3(C)COC3)cn3c(-c4nnc(C(F)F)s4)ncc23)CCN1 [Example 181, (S)-3-(5-(difluoromethyl)-1,3,4-thiadiazol-2-yl)-N-(3-methyloxetan-3-yl)-8-(3-methylpiperazin-1-yl)imidazo[1,5-a]pyridine-6-sulfonamide] | 1.78 nM | 151 nM |  |  | 
23 | Cc1nc(-c2nnc(C(F)(F)F)s2)n2cc(S(=O)(=O)NC3(C)CC3)cc(N3CCN(C(=O)[C@H]4CCN4C)CC3)c12 [Example 171, (R)-1-methyl-8-(4-(1-methylazetidine-2-carbonyl)piperazin-1-yl)-N-(1-methylcyclopropyl)-3-(5-(trifluoromethyl)-1,3,4-thiadiazol-2-yl)imidazo[1,5-a]pyridine-6-sulfonamide] | 0.71 nM | 32 nM |  |  | 
